Data published in US20100075917A1, “THIONUCLEOSIDES AND PHARMACEUTICAL APPLICATIONS” (priority 2006, published 2010).
Where two headings read alike, the source gives them in different places.

Columns and labels:
[1] = tested on: human CEM cells; test: Cytotoxicity (MTT) on CEM cells; format: cell-based; details: CCRF-CEM; for CC50: read-out: CC50 CEM; for EC50: Tables 4 and 6, CEM cells, some values 'then plateau'
Description: (§1) The cytotoxic effect of a compound is studied on human CEM cells and MCF-7 mammary carcinoma cells that are or are not resistant to gemcitabine, which is an anticancer nucleoside used in chemotherapy.
(§2) The cytotoxicity (CC50) was estimated by measuring the reduction of 3-(4,5-dimethylthiazol-2-yl)-2,5-diphenyltetrazolium bromide (MTT), which is converted into insoluble violet formazan. To do this, 100 000 cells (human CEM-SS or MCF-7 lines) are inoculated per well in 100 μl of culture medium, in 96-well microtitration plates. After 24 hours, the test products are added in 100 μl and incubation is continued for 48 to 72 hours. MIT is then added in a proportion of 20 μl of a solution at 5 mg/ml in PBS. Three hours later, 100 μl of a DMF/acetic acid/HCl/SDS (sodium dodecyl sulfate) solution are added. After 3 hours at 37° C., the absorbance of the formazan is measured at 590 nm and compared with that of the untreated control.

[2] = tested on: MCF-7 mammary carcinoma cells; test: Cytotoxicity (MTT) on MCF-7 cells; format: cell-based, human
Description: as §1, §2

[3] = tested on: human Molt4/C8 cells; test: Cytotoxic effect on Molt4/C8 cells; format: cell-based; details: Tables 5 and 7, Molt4/C8 cells
[4] = tested on: human CEM T4 lymphocytes; test: Cytotoxic effect on CEM T4 lymphocytes; format: cell-based; set-up: unit not given beside the values; details: Tables 5 and 7, CEM cells
[5] = tested on: Moloney sarcoma virus; test: Inhibition of transformation of mouse embryo C3H/3T3 cells induced by Moloney sarcoma virus; format: cell-based; set-up: MIC (minimum inhibitory concentration): unit not given here; details: for MIC (minimum inhibitory concentration): C3H/3T3 cells, a second bound is given in brackets for some compounds
Source text: 2.2. Inhibitory Effect on the Transformation of Mouse Embryo C3H/3T3 Cells Induced by Moloney Sarcoma Virus (Model of Infection with HIV)

[6] = tested on: L1210/0 murine leukemia cells; test: Cytotoxic effect on L1210/0 cells; format: cell-based; details: Tables 5 and 7, L1210/0 cells
[7] = tested on: HeLa cells; test: Cytotoxic effect on HeLa cells; format: cell-based; set-up: unit not given beside the values; details: Tables 5 and 7, HeLa cells
[8] = tested on: FM3A/0 murine mammary carcinoma cells; test: Cytotoxic effect on FM3A/0 cells; format: cell-based; set-up: unit not given beside the values; details: Tables 5 and 7, FM3A/0 cells
[9] = tested on: HIV-2; test: Anti-HIV-2 effect in CEM/TK− cells; format: cell-based; details: Human immunodeficiency virus 2, CEM-TK(-); Third Series; CEM cells having no thymidine kinase activity
Description: (§3) The evaluation test is described in Roy, B.; Chambert, S.; Lepoivre M.; Aubertin, A.-M.; Balzarini, J.; Décout, J.-L., Deoxyribonucleoside 2′- or 3′-mixed disulfides: prodrugs to target ribonucleotide reductase and/or to inhibit HIV reverse transcription. J. Med. Chem. 2003, 46, 2565-2568.
(§4) The toxicity and the antiviral activities were measured at different concentrations, and their evolution as a function of the concentration makes it possible to evaluate: • the concentration at which 50% of the cells are dead in the absence of virus (CC 50) for each of the test compounds, from the change in absorbance at 540 nm of formazan as a function of the concentration of test compound, • the concentration of compound that leads to a 50% reduction in the activity of viral reverse transcriptase (EC 50). This concentration is determined from the curve representing the change in the percentage of “remaining reverse transcriptase” activity (defined as being the ratio of the activity of the reverse transcriptase in the presence of the test compound to that of the untreated cells) as a function of the concentration of test compound.
(§5) EC50: concentration required to afford 50% protection to the CEM cells against the cytopathogenicity of HIV;
• Effect in CEM not expressing thymidine kinase activity (CEM/TK^−, cells having no thymidine kinase activity).

[10] = tested on: HIV-2; test: Anti-HIV-2 effect in CEM cells; format: cell-based; details: CEM cells, read-out: EC50 HIV-2
Description: as §3, §4, §5

[11] = tested on: HIV-1; test: Anti-HIV-1 effect in CEM cells; format: cell-based
Description: as §3, §4, §5

[12] = transformation of C3H/3T3 cells induced by Moloney sarcoma virus, read-out: EC50 (effective concentration 50%)
[13] = Human immunodeficiency virus 2, CCRF-CEM, Third Series
[14] = Human immunodeficiency virus 1, CCRF-CEM, Third Series, read-out: EC50 HIV-1

Molecule | cytotoxic effect, Molt4/C8 [3] | cytotoxic effect, CEM [4] | MIC (minimum inhibitory concentration) [5] | EC50 [5, 12] [µM] | cytotoxic effect, L1210/0 [6] | cytotoxic effect, HeLa [7] | cytotoxic effect, FM3A/0 [8] | also measured
CC(C)CCSC1=C[C@@H](CO)O[C@H]1n1ccc(=O)[nH]c1=O [Compound 2] | – | – | – | – | – | – | – | CC50 ([1]; Table 3, MTT, human CEM cells): > 200 µM; CC50 ([2]; Homo sapiens, MCF7, read-out: CC50 MCF-7): > 200 µM
Cc1cn([C@H]2C=C(SCC[Si](C)(C)C)[C@@H](CO)O2)c(=O)[nH]c1=O [Compound 4, 2′,3′-didehydro-2′,3′-dideoxy-3′-(2-trimethylsilyl)ethylthiothymidine] | – | – | – | – | – | – | – | CC50 ([1]; Homo sapiens): 82 µM; cytotoxicity at 200 μM, MCF-7 [2]: 33%
C[Si](C)(C)CCSC1=C[C@@H](CO)O[C@H]1n1ccc(N)nc1=O [Compound 5, 2′,3′-Didehydro-2′,3′-dideoxy-2′-(2-trimethylsilyl)ethylthiocytidine] | – | – | – | – | – | – | – | CC50 ([1]; Homo sapiens): 217 µM; cytotoxicity at 200 μM, MCF-7 [2]: 41%
Cc1cn([C@@H]2O[C@H](CO)C=C2[S+]([O-])CC[Si](C)(C)C)c(=O)[nH]c1=O (some centres unmarked) [Compound 6, 2′,3′-Didehydro-2′,3′-dideoxy-2′-(2-trimethylsilyl)ethylthiothymidine sulfoxide] | – | – | – | – | – | – | – | CC50 ([1]; Homo sapiens): > 200 µM
C[Si](C)(C)CC[S+]([O-])C1=C[C@@H](CO)O[C@H]1n1ccc(=O)[nH]c1=O (some centres unmarked) [Compound 8, 2′,3′-Didehydro-2′,3′-dideoxy-2′-(2-trimethylsilyl)ethylthiouridine sulfoxide] | – | – | – | – | – | – | – | CC50 ([1]; Homo sapiens): > 200 µM
Cc1cn([C@@H]2O[C@H](CO)C=C2SSc2ccccc2[N+](=O)[O-])c(=O)[nH]c1=O [Compound 11] | – | – | – | – | – | – | – | EC50 ([1]; Homo sapiens): > 200 µM
Cc1cn([C@@H]2O[C@H](CO)C=C2SSC(Cl)(Cl)Cl)c(=O)[nH]c1=O [Compound 12, 2′,3′-didehydro-2′,3′-dideoxythymidin-2′-yl trichloromethyl disulfide] | – | – | – | – | – | – | – | EC50 ([1]; Homo sapiens): 46 µM
Cc1cn(C2OC(CO)C=C2SSc2ccc([N+](=O)[O-])cc2)c(=O)[nH]c1=O (centres unmarked) [Compound 14, 2′,3′-didehydro-2′,3′-dideoxythymidin-2′-yl 4-nitrophenyl disulfide] | 12 ± 5 | 31 ± 1 | 100 | 15 | 31 ± 3 | 7.4 ± 1.6 | 39 ± 3 | –
Cc1cn(C2OC(CO)C=C2SSc2ccccc2[N+](=O)[O-])c(=O)[nH]c1=O (centres unmarked) [Compound 15, 2′,3′-didehydro-2′,3′-dideoxythymidin-2′-yl 2-nitrophenyl disulfide] | 30 ± 15 | 28 ± 0 | 100 | 8.3 ± 0.4 | 42 ± 3 | 31 ± 1 | 175 ± 30 | –
O=c1ccn([C@@H]2O[C@H](CO)C=C2SSc2ccc([N+](=O)[O-])cc2)c(=O)[nH]1 [Compound 16, 2′,3′-didehydro-2′,3′-dideoxyuridin-2′-yl 4-nitrophenyl disulfide] | 28 ± 10 | 41 ± 1 | – | – | 42 ± 4 | 16 ± 2 | 45 ± 2 | EC50 [9]: 32.5 ± 25 µM; EC50 [10, 13]: 9.5 ± 7.8 µM; EC50 [11, 14]: 37.5 ± 17.7 µM
O=c1ccn([C@@H]2O[C@H](CO)C=C2SSc2ccccc2[N+](=O)[O-])c(=O)[nH]1 [Compound 17, 2′,3′-didehydro-2′,3′-dideoxyuridin-2′-yl 2-nitrophenyl disulfide] | 42 ± 1 | 40 ± 4 | – | – | 43 ± 5 | 29 ± 9 | 206 ± 25 | EC50 [9]: > 10 µM; EC50 [10, 13]: ≥ 10 µM; EC50 [11, 14]: 6.5 ± 4.9 µM
CSS[C@H]1C[C@H](n2ccc(N)nc2=O)O[C@@H]1CO [Compound 19, 2′,3′-Dideoxycytidin-3′-yl methyl disulfide] | – | – | >100 | – | – | – | – | EC50 ([5]; C3H/3T3, read-out: EC50 (effective concentration 50%)): 48 ± 2 µM; EC50 ([1]; Homo sapiens): > 200 µM; EC50 [9]: 45 ± 21 µM; EC50 ([10]; Human immunodeficiency virus 2, CCRF-CEM, First and Second Series, first table): 10.5 ± 9.3 µM; EC50 [10, 13]: 20 ± 7 µM; EC50 [11, 14]: 20 ± 7 µM; EC50 ([11]; Human immunodeficiency virus 1, CCRF-CEM, read-out: EC50 HIV-1, First and Second Series, first table): 3.3 ± 2.3 µM
CSS[C@H]1C[C@H](n2cc(Br)c(=O)[nH]c2=O)O[C@@H]1CO [Compound 23, 5-Bromo-2′,3′-dideoxyuridin-3′-yl methyl disulfide] | – | – | – | – | – | – | – | EC50 ([1]; Homo sapiens): 66 µM
Cc1cn([C@H]2C[C@H](SSc3ccc([N+](=O)[O-])cc3)[C@@H](CO)O2)c(=O)[nH]c1=O [Compound 25, 3′-deoxythymidin-3′-yl 4-nitrophenyl disulfide] | 29 ± 2 | 34 ± 0 | 20 | 0.89 ± 0.36 | 32 ± 3 | 28 ± 12 | 148 ± 16 | –
Cc1cn([C@H]2C[C@H](SSc3ccccc3[N+](=O)[O-])[C@@H](CO)O2)c(=O)[nH]c1=O [Compound 26, 3′-deoxythymidin-3′-yl 2-nitrophenyl disulfide] | 31 ± 5 | 32 ± 1 | 20 | 1.1 ± 0.8 | 33 ± 7 | 15 ± 0 | 220 ± 19 | –
Cc1cn([C@H]2C[C@H](SSCCCCCCO)[C@@H](CO)O2)c(=O)[nH]c1=O [Compound 30, 3′-deoxythymidin-3′-yl 6-hydroxyhexyl disulfide] | – | – | – | – | – | – | – | EC50 [9]: > 10 µM; EC50 [10, 13]: 4.5 ± 2.1 µM; EC50 [11, 14]: 3 µM
CSC1=C[C@@H](CO)O[C@H]1n1ccc(=O)[nH]c1=O [Compound 31, 2′,3′-didehydro-2′,3′-dideoxy-2′-methylthiouridine] | – | – | – | – | – | – | – | EC50 [9]: > 10 µM; EC50 [10, 13]: 6.5 ± 0.7 µM; EC50 [11, 14]: ≥ 10 µM
Nc1ncnc2c1ncn2CCOCP(=O)(O)O [PMEA, reference compound] | – | – | – | 0.53 ± 0.13 | – | – | – | –
C[C@H](Cn1cnc2c(N)ncnc21)OCP(=O)(O)O [Tenofovir, reference compound] | – | – | – | – | – | – | – | EC50 ([10]; First and Second Series, first table): 2.6 µM; EC50 ([11]; First and Second Series, first table, read-out: EC50 HIV-1): 5.5 µM
(R)-PMEA [reference compound] | – | – | >10 | 0.23 ± 0.03 | – | – | – | –
